Assay results reported in patent US10087178B2, “Substituted spiropyrido[1,2-a]pyrazine derivative and medicinal use thereof as HIV integrase inhibitor” (priority 2012, dated 2018).
Counter-ions that a name gives are not always drawn.

tested on: HIV-1 NL4-3 strain; experiment: Evaluation of antiviral activity: acute infection system of MT-4 cell with HIV-1 NL4-3 strain; format: cell-based; settings: Human immunodeficiency virus 1, NL43, MT4, 120 h, MT-4 cells infected with HIV-1 NL4-3 strain (MOI 0.05), cultured 5 days, Cell Titer-Glo; read-out: antiviral activity (EC50)

`CC(C)N1C[C@]2(C[C@@H](OS(C)(=O)=O)C2)n2cc(C(=O)NCc3ccc(F)cc3F)c(=O)c(O)c2C1=O` [Example S34, 7′-(2,4-difluorobenzylcarbamoyl)-9′-hydroxy-2′-isopropyl-1′,8′-dioxo-1′,2′,3′,8′-tetrahydrospiro[cyclobutane-1,4′-pyrido[1,2-a]pyrazine]- trans-3-yl methanesulfonate hydrochloride] and `CC(C)N1C[C@]2(C[C@H](OS(C)(=O)=O)C2)n2cc(C(=O)NCc3ccc(F)cc3F)c(=O)c(O)c2C1=O` [Example S35, 7′-(2,4-difluorobenzylcarbamoyl)-9′-hydroxy-2′-isopropyl-1′,8′-dioxo-1′,2′,3′,8′-tetrahydrospiro[cyclobutane-1,4′-pyrido[1,2-a]pyrazine]- cis-3-yl methanesulfonate hydrochloride] are within 1.5-fold of each other in EC50: 5.7 nM for the first, 7.3 nM for the second.

First: CN1C[C@]2(C[C@@H](CO)C2)n2cc(C(=O)NCc3cccc(Cl)c3F)c(=O)c(O)c2C1=O [Example S36, N-(3-chloro-2-fluorobenzyl)-9′-hydroxy-trans-3-(hydroxymethyl)-2′-methyl-1′,8′-dioxo-1′,2′,3′,8′-tetrahydrospiro[cyclobutane-1,4′-pyrido[1,2-a]pyrazine]-7′-carboxamide]
Second: CN1C[C@]2(C[C@H](CO)C2)n2cc(C(=O)NCc3cccc(Cl)c3F)c(=O)c(O)c2C1=O [Example S37, N-(3-chloro-2-fluorobenzyl)-9′-hydroxy-cis-3-(hydroxymethyl)-2′-methyl-1′,8′-dioxo-1′,2′,3′,8′-tetrahydrospiro[cyclobutane-1,4′-pyrido[1,2-a]pyrazine]-7′-carboxamide hydrochloride]
The EC50 of the first is 3.9-fold higher: 15 nM for the first, 3.8 nM for the second.

First: CC(=O)NC[C@H]1C[C@]2(CN(C(C)C)C(=O)c3c(O)c(=O)c(C(=O)NCc4ccc(F)cc4F)cn32)C1 [Example S38, cis-3-(acetamidomethyl)-N-(2,4-difluorobenzyl)-9′-hydroxy-2′-isopropyl-1′,8′-dioxo-1′,2′,3′,8′-tetrahydrospiro[cyclobutane-1,4′-pyrido[1,2-a]pyrazine]-7′-carboxamide hydrochloride]
Second: CCO[C@H]1C[C@]2(CN(C)C(=O)c3c(O)c(=O)c(C(=O)NCc4ccc(F)cc4F)cn32)C1 [Example S51, N-(2,4-difluorobenzyl)-cis-3-ethoxy-9′-hydroxy-2′-methyl-1′,8′-dioxo-1′,2′,3′,8′-tetrahydrospiro[cyclobutane-1,4′-pyrido[1,2-a]pyrazine]-7′-carboxamide hydrochloride]
The EC50 of the first is 21-fold higher: 50 nM for the first, 2.4 nM for the second. The second is the more potent here.

`CCOC[C@H]1C[C@]2(CN(C)C(=O)c3c(O)c(=O)c(C(=O)NCc4cccc(Cl)c4F)cn32)C1` [Example S39, N-(3-chloro-2-fluorobenzyl)- cis-3-(ethoxymethyl)-9′-hydroxy-2′-methyl-1′,8′-dioxo-1′,2′,3′,8′-tetrahydrospiro[cyclobutane-1,4′-pyrido[1,2-a]pyrazine]-7′-carboxamide hydrochloride] and `CCOC[C@H]1C[C@]2(CN(CC)C(=O)c3c(O)c(=O)c(C(=O)NCc4cccc(Cl)c4F)cn32)C1` [Example S48, N-(3-chloro-2-fluorobenzyl)- cis-3-(ethoxymethyl)-2′-ethyl-9′-hydroxy-1′,8′-dioxo-1′,2′,3′,8′-tetrahydrospiro[cyclobutane-1,4′-pyrido[1,2-a]pyrazine]-7′-carboxamide hydrochloride] are within 1.5-fold of each other in EC50: 3.5 nM for the first, 4.3 nM for the second.

Going from `CC(C)O[C@H]1C[C@@]2(CN(C)C(=O)c3c(O)c(=O)c(C(=O)NCc4cccc(Cl)c4F)cn32)C1` [Example S40, N-(3-chloro-2-fluorobenzyl)-9′-hydroxy-trans-3-isopropoxy-2′-methyl-1′-8′-dioxo-1′,2′,3′,8′-tetrahydrospiro[cyclobutane-1,4′-pyrido[1,2-a]pyrazine]-7′-carboxamide hydrochloride] to `CC(C)O[C@H]1C[C@]2(CN(C)C(=O)c3c(O)c(=O)c(C(=O)NCc4cccc(Cl)c4F)cn32)C1` [Example S41, N-(3-chloro-2-fluorobenzyl)-9′-hydroxy-cis-3-isopropoxy-2′-methyl-1′,8′-dioxo-1′,2′,3′,8′-tetrahydrospiro[cyclobutane-1,4′-pyrido[1,2-a]pyrazine]-7′-carboxamide hydrochloride], the EC50 rises from 2.3 nM to 3.5 nM (1.5-fold).

`CCCO[C@H]1C[C@@]2(CN(C)C(=O)c3c(O)c(=O)c(C(=O)NCc4cccc(Cl)c4F)cn32)C1` [Example S42, N-(3-chloro-2-fluorobenzyl)-9′-hydroxy-2′-methyl-1′,8′-dioxo-trans-3-propoxy-1′,2′,3′,8′-tetrahydrospiro[cyclobutane-1,4′-pyrido[1,2-a]pyrazine]-7′-carboxamide hydrochloride] and `CCCO[C@H]1C[C@]2(CN(C)C(=O)c3c(O)c(=O)c(C(=O)NCc4cccc(Cl)c4F)cn32)C1` [Example S43, N-(3-chloro-2-fluorobenzyl)-9′-hydroxy-2′-methyl-1′-8′-dioxo-cis-3-propoxy-1′,2′,3′,8′-tetrahydrospiro[cyclobutane-1,4′-pyrido[1,2-a]pyrazine]-7′-carboxamide hydrochloride] are within 1.5-fold of each other in EC50: 4.3 nM for the first, 4.7 nM for the second.

First: CCN1C[C@]2(C[C@@H](CO)C2)n2cc(C(=O)NCc3cccc(Cl)c3F)c(=O)c(O)c2C1=O [Example S44, N-(3-chloro-2-fluorobenzyl)-2′-ethyl-9′-hydroxy-trans-3-(hydroxymethyl)-1′,8′-dioxo-1′,2′,3′,8′-tetrahydrospiro[cyclobutane-1,4′-pyrido[1,2-a]pyrazine]-7′-carboxamide hydrochloride]
Second: CCN1C[C@]2(C[C@H](CO)C2)n2cc(C(=O)NCc3cccc(Cl)c3F)c(=O)c(O)c2C1=O [Example S46, N-(3-chloro-2-fluorobenzyl)-2′-ethyl-9′-hydroxy-cis-3-(hydroxymethyl)-1′,8′-dioxo-1′,2′,3′,8′-tetrahydrospiro[cyclobutane-1,4′-pyrido[1,2-a]pyrazine]-7′-carboxamide hydrochloride]
The EC50 of the first is 2.5-fold higher: 11 nM for the first, 4.4 nM for the second. The second is the more potent here.

`CCN1C[C@]2(C[C@@H](COC)C2)n2cc(C(=O)NCc3cccc(Cl)c3F)c(=O)c(O)c2C1=O` [Example S45, N-(3-chloro-2-fluorobenzyl)-2′-ethyl-9′-hydroxy-trans-3-(methoxymethyl)-1′,8′-dioxo-1′,2′,3′,8′-tetrahydrospiro[cyclobutane-1,4′-pyrido[1,2-a]pyrazine]-7′-carboxamide hydrochloride] and `CCN1C[C@]2(C[C@H](COC)C2)n2cc(C(=O)NCc3cccc(Cl)c3F)c(=O)c(O)c2C1=O` [Example S47, N-(3-chloro-2-fluorobenzyl)-2′-ethyl-9′-hydroxy-cis-3-(methoxymethyl)-1′,8′-dioxo-1′,2′,3′,8′-tetrahydrospiro[cyclobutane-1,4′-pyrido[1,2-a]pyrazine]-7′-carboxamide hydrochloride] are within 1.5-fold of each other in EC50: 3.9 nM for the first, 3.5 nM for the second.

Compared with `COc1ccc(CNC(=O)c2cn3c(c(O)c2=O)C(=O)N(C)C[C@]32C[C@@H](CO)C2)c(F)c1Cl` [Example S49], `COc1ccc(CNC(=O)c2cn3c(c(O)c2=O)C(=O)N(C)C[C@]32C[C@H](CO)C2)c(F)c1Cl` [Example S50, N-(3-chloro-2-fluoro-4-methoxybenzyl)-9′-hydroxy- cis-3-(hydroxymethyl)-2′-methyl-1′,8′-dioxo-1′,2′,3′,8′-tetrahydrospiro[cyclobutane-1,4′-pyrido[1,2-a]pyrazine]-7′-carboxamide] is 1.8-fold lower in EC50: 65 nM for the first, 37 nM for the second.

Compared with `CO[C@H]1C[C@@]2(Cn3cc(C(=O)NCc4ccc(F)cc4F)c(=O)c(O)c3C(=O)N2C(C)C)C1` [Example S52, N-(2,4-difluorobenzyl)-9′-hydroxy-2′-isopropyl-trans-3-methoxy-1′,8′-dioxo-1′,2′,4′,8′-tetrahydrospiro[cyclobutane-1,3′-pyrido[1,2-a]pyrazine]-7′-carboxamide hydrochloride], `CO[C@H]1C[C@]2(Cn3cc(C(=O)NCc4ccc(F)cc4F)c(=O)c(O)c3C(=O)N2C(C)C)C1` [Example S53, N-(2,4-difluorobenzyl)-9′-hydroxy-2′-isopropyl-cis-3-methoxy-1′,8′-dioxo-1′,2′,4′,8′-tetrahydrospiro[cyclobutane-1,3′-pyrido[1,2-a]pyrazine]-7′-carboxamide hydrochloride] is 2.9-fold higher in EC50: 3.5 nM for the first, 10 nM for the second. The first is the more potent here.

`CC(C)N1C(=O)c2c(O)c(=O)c(C(=O)NCc3ccc(F)cc3F)cn2C[C@]12C[C@@H](O)C2` [Example S54, N-(2,4-difluorobenzyl)- trans-3,9′-dihydroxy-2′-isopropyl-1′,8′-dioxo-1′,2′,4′,8′-tetrahydrospiro[cyclobutane-1,3′-pyrido[1,2-a]pyrazine]-7′-carboxamide hydrochloride] and `CC(C)N1C(=O)c2c(O)c(=O)c(C(=O)NCc3ccc(F)cc3F)cn2C[C@]12C[C@H](O)C2` [Example S55, N-(2,4-difluorobenzyl)-cis-3,9′-dihydroxy-2′-isopropyl-1′,8′-dioxo-1′,2′,4′,8′-tetrahydrospiro[cyclobutane-1,3′-pyrido[1,2-a]pyrazine]-7′-carboxamide hydrochloride] are within 1.5-fold of each other in EC50: 27 nM for the first, 33 nM for the second.

`CCO[C@H]1C[C@@]2(Cn3cc(C(=O)NCc4cccc(Cl)c4F)c(=O)c(O)c3C(=O)N2CC)C1` [Example S56, N-(3-chloro-2-fluorobenzyl)- trans-3-ethoxy-2′-ethyl-9′-hydroxy-1′,8′-dioxo-1′,2′,4′,8′-tetrahydrospiro[cyclobutane-1,3′-pyrido[1,2-a]pyrazine]-7′-carboxamide hydrochloride] and `CCO[C@H]1C[C@]2(Cn3cc(C(=O)NCc4cccc(Cl)c4F)c(=O)c(O)c3C(=O)N2CC)C1` [Example S57, N-(3-chloro-2-fluorobenzyl)- cis-3-ethoxy-2′-ethyl-9′-hydroxy-1′,8′-dioxo-1′,2′,4′,8′-tetrahydrospiro[cyclobutane-1,3′-pyrido[1,2-a]pyrazine]-7′-carboxamide hydrochloride] are within 1.5-fold of each other in EC50: 5.1 nM for the first, 4.7 nM for the second.

In the case of `CCN1C(=O)c2c(O)c(=O)c(C(=O)NCc3cccc(Cl)c3F)cn2C[C@]12C[C@@H](CO)C2` [Example S58, N-(3-chloro-2-fluorobenzyl)-2′-ethyl-9′-hydroxy-trans-3-(hydroxymethyl)-1′,8′-dioxo-1′,2′,4′,8′-tetrahydrospiro[cyclobutane-1,3′-pyrido[1,2-a]pyrazine]-7′-carboxamide hydrochloride], the EC50 is reported as 6.8 nM.
